How the values were obtained:
Assay in all cases: radiometric filter-binding kinase assay
[1] = test system: AKT2 (human), P31751 [S474D]; conditions: compound 100.0 µM; ATP 50 µM
BTK (human) = BTK (human) (UniProt Q06187); conditions: compound 100.0 µM; ATP 50 µM
CAMKK2 (human) = CAMKK2 (human) (UniProt Q96RR4); conditions: compound 100.0 µM; ATP 20 µM
CHEK2 (human) = CHEK2 (human) (UniProt O96017); conditions: compound 100.0 µM; ATP 20 µM
DYRK1A (human) = DYRK1A (human) (UniProt Q13627); conditions: compound 100.0 µM; ATP 50 µM
DYRK2 (human) = DYRK2 (human) (UniProt Q92630); conditions: compound 100.0 µM; ATP 50 µM
DYRK3 (human) = DYRK3 (human) (UniProt O43781); conditions: compound 100.0 µM; ATP 5 µM
Chain of DYRK3 (human) (O43781 whole entry, looked up): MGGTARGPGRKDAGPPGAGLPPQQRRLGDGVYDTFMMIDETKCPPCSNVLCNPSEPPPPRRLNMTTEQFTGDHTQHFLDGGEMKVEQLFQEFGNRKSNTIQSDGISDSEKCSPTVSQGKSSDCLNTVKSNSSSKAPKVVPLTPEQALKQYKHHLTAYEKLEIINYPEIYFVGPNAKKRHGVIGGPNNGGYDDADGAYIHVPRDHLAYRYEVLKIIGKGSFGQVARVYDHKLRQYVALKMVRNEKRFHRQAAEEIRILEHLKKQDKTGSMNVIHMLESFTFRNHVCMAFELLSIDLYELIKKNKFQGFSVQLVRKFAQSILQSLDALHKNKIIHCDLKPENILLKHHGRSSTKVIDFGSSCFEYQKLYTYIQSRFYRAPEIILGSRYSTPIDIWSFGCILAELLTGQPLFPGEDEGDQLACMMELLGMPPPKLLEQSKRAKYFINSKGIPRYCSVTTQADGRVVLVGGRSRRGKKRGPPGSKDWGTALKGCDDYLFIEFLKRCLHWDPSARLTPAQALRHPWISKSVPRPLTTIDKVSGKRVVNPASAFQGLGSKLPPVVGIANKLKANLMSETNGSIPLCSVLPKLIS

EPHA2 (human) = EPHA2 (human) (UniProt P29317); conditions: compound 100.0 µM; ATP 50 µM
Chain of EPHA2 (human) (P29317 whole entry, looked up): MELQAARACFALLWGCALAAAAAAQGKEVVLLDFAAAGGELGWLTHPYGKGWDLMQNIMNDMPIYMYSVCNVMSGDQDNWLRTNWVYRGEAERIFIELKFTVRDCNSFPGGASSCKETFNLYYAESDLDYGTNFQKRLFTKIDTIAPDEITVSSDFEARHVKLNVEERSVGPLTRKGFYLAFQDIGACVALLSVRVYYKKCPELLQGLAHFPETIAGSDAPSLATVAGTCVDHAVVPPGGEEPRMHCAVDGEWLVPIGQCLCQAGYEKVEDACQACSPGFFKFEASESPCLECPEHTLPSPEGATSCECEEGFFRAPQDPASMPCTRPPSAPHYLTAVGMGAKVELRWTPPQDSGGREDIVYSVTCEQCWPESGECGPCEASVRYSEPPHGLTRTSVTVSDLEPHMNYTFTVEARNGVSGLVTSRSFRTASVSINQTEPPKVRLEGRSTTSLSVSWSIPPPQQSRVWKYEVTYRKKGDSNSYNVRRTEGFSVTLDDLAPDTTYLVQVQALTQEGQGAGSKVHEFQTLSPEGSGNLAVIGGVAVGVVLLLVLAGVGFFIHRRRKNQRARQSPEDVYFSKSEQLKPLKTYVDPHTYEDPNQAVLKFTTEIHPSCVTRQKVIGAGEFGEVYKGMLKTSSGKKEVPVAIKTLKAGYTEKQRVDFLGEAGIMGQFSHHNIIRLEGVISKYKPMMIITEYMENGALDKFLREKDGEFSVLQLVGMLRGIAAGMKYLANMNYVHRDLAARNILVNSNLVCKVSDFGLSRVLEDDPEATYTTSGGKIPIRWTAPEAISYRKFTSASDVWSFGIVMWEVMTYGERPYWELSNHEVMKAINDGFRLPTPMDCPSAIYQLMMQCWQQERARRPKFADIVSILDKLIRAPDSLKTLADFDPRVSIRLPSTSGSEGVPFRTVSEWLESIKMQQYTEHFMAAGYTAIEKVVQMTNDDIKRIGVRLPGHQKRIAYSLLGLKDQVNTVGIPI

FGFR1 (human) = FGFR1 (human) (UniProt P11362); conditions: compound 100.0 µM; ATP 20 µM
FLT1 (human) = FLT1 (human) (UniProt P17948); conditions: compound 100.0 µM; ATP 20 µM
IGF1R (human) = IGF1R (human) (UniProt P08069); conditions: compound 100.0 µM; ATP 5 µM
MAP3K1 (human) = MAP3K1 (human) (UniProt Q13233); conditions: compound 100.0 µM; ATP 50 µM
MAP3K9 (human) = MAP3K9 (human) (UniProt P80192); conditions: compound 100.0 µM; ATP 20 µM
MAPK11 (human) = MAPK11 (human) (UniProt Q15759); conditions: compound 100.0 µM; ATP 20 µM
MAPK15 (human) = MAPK15 (human) (UniProt Q8TD08); conditions: compound 100.0 µM; ATP 5 µM
MAPKAPK2 (human) = MAPKAPK2 (human) (UniProt P49137); conditions: compound 100.0 µM; ATP 20 µM
MAPKAPK3 (human) = MAPKAPK3 (human) (UniProt Q16644); conditions: compound 100.0 µM; ATP 20 µM
MELK (human) = MELK (human) (UniProt Q14680); conditions: compound 100.0 µM; ATP 50 µM
MINK1 (human) = MINK1 (human) (UniProt Q8N4C8); conditions: compound 100.0 µM; ATP 50 µM
MST4 (human) = MST4 (human) (UniProt Q9P289); conditions: compound 100.0 µM; ATP 20 µM
MYLK (human) = MYLK (human) (UniProt Q15746); conditions: compound 100.0 µM; ATP 50 µM
NEK2 (human) = NEK2 (human) (UniProt P51955); conditions: compound 100.0 µM; ATP 50 µM
Chain of NEK2 (human) (P51955 whole entry, looked up): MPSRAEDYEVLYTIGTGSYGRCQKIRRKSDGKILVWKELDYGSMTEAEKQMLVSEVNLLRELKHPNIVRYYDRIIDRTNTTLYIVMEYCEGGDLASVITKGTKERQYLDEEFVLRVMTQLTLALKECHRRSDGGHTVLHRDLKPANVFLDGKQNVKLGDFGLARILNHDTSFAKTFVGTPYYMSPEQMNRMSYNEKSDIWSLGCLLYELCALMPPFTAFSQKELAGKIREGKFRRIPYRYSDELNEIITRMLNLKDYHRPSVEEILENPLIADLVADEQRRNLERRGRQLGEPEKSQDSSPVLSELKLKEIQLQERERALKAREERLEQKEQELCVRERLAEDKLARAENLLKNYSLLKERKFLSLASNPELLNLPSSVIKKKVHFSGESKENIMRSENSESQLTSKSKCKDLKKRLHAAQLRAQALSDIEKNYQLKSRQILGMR

NEK6 (human) = NEK6 (human) (UniProt Q9HC98); conditions: compound 100.0 µM; ATP 50 µM
PAK6 (human) = PAK6 (human) (UniProt Q9NQU5); conditions: compound 100.0 µM; ATP 20 µM
Chain of PAK6 (human) (Q9NQU5 whole entry, looked up): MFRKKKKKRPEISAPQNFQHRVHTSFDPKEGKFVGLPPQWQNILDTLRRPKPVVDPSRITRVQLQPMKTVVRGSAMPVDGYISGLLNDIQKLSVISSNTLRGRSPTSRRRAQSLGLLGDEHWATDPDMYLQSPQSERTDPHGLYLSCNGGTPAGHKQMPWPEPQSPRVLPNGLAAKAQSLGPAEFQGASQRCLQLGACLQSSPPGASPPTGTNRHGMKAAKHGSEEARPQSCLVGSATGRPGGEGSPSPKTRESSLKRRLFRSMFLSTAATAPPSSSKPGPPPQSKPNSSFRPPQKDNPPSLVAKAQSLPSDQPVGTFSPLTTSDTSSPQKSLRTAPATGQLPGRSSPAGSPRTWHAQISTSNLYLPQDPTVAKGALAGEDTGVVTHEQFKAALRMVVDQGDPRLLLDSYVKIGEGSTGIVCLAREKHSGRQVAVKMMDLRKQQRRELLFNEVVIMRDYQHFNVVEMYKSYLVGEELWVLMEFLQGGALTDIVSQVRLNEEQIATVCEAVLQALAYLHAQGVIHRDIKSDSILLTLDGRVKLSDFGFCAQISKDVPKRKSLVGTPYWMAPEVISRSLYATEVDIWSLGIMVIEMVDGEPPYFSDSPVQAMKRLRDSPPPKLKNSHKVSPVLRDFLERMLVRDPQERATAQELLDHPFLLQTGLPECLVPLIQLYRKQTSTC

PAK7 (human) = PAK7 (human) (UniProt Q9P286); conditions: compound 100.0 µM; ATP 20 µM
Chain of PAK7 (human) (Q9P286 whole entry, looked up): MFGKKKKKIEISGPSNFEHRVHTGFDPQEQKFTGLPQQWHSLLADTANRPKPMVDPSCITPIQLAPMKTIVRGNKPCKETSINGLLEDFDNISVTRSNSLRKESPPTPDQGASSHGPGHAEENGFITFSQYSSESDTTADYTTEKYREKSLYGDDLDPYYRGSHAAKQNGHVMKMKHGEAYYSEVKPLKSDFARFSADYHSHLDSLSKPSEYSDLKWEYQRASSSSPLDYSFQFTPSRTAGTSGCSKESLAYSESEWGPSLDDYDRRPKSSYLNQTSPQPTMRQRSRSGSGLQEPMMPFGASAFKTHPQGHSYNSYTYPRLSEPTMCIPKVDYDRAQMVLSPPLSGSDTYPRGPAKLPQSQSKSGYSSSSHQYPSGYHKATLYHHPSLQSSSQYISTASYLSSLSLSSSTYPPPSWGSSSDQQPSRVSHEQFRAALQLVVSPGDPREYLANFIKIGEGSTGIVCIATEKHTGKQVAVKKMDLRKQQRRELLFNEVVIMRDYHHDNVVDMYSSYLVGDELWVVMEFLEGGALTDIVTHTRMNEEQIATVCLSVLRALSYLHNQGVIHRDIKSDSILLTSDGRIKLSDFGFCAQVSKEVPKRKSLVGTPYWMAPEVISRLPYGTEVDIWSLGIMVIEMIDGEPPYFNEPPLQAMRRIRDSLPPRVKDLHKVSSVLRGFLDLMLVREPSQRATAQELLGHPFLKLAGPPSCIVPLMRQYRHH

PHKG1 (human) = PHKG1 (human) (UniProt Q16816); conditions: compound 100.0 µM; ATP 50 µM
PIM1 (human) = PIM1 (human) (UniProt P11309); conditions: compound 100.0 µM; ATP 20 µM
PIM2 (human) = PIM2 (human) (UniProt Q9P1W9); conditions: compound 100.0 µM; ATP 5 µM
PKN2 (human) = PKN2 (human) (UniProt Q16513); conditions: compound 100.0 µM; ATP 5 µM
[2] = biological target: PRKAA1 PRKAB2 PRKAG1 (human) (UniProt O43741+Q13131+P54619); conditions: compound 100.0 µM; ATP 20 µM
PRKCA (human) = PRKCA (human) (UniProt P17252); conditions: compound 100.0 µM; ATP 20 µM
PRKCG (human) = PRKCG (human) (UniProt P05129); conditions: compound 100.0 µM; ATP 20 µM
RPS6KA5 KD1 KD2 (human) = RPS6KA5 KD1 KD2 (human) (UniProt O75582); conditions: compound 100.0 µM; ATP 20 µM
[3] = test system: SGK1 (human), O00141 [S422D]; conditions: compound 100.0 µM; ATP 20 µM
SRPK1 (human) = SRPK1 (human) (UniProt Q96SB4); conditions: compound 100.0 µM; ATP 50 µM
[4] = biological target: STK11 CAB39 STRADA (human) (UniProt Q9Y376+Q7RTN6+Q15831); conditions: compound 100.0 µM; ATP 20 µM
STK3 (human) = STK3 (human) (UniProt Q13188); conditions: compound 100.0 µM; ATP 20 µM
Chain of STK3 (human) (Q13188 whole entry, looked up): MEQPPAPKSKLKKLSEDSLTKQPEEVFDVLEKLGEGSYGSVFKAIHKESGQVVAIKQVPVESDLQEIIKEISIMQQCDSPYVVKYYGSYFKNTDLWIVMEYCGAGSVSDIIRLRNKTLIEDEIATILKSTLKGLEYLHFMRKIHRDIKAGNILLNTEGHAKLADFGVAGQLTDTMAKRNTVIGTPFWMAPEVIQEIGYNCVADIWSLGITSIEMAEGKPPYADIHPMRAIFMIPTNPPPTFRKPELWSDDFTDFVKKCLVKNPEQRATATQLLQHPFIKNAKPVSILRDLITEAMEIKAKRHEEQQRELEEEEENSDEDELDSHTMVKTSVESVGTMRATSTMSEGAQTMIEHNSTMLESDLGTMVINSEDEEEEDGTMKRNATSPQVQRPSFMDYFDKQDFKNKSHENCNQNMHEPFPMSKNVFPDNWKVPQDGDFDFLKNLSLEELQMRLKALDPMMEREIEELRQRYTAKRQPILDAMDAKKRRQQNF

SYK (human) = SYK (human) (UniProt P43405); conditions: compound 100.0 µM; ATP 20 µM
YES1 (human) = YES1 (human) (UniProt P07947); conditions: compound 100.0 µM; ATP 20 µM

Chain of CHEK2 (human) (O96017 whole entry, looked up): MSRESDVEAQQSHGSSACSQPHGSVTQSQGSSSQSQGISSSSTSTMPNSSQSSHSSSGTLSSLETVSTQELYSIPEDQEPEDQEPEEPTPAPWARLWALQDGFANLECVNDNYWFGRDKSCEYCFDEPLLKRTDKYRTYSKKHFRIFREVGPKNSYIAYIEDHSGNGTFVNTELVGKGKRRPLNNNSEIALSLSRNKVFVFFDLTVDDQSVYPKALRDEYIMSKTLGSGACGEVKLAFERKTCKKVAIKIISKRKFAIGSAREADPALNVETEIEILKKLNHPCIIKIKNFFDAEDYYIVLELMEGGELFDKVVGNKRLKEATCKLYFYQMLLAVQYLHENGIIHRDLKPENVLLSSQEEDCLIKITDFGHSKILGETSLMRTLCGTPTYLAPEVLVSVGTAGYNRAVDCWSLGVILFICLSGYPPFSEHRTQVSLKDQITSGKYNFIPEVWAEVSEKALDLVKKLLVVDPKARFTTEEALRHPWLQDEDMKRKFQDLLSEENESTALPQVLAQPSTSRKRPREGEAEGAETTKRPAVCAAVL
Chain of AKT2 (human), P31751 [S474D] (P31751 whole entry S474D, looked up): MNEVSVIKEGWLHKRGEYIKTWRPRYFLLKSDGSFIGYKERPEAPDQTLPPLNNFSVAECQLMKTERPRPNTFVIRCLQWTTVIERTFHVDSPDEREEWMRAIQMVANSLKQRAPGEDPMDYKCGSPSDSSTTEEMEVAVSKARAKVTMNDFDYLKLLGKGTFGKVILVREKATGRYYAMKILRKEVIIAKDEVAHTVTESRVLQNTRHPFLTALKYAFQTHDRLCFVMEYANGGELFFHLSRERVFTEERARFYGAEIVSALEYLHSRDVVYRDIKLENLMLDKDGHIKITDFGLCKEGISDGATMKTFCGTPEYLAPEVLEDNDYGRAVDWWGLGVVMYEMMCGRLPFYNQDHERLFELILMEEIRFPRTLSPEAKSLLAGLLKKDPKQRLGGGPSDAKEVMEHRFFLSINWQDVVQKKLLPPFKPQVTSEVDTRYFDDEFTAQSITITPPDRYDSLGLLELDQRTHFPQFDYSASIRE

| inhibition [1] | inhibition (BTK (human)) | inhibition (CAMKK2 (human)) | inhibition (CHEK2 (human)) | inhibition (DYRK1A (human)) | inhibition (DYRK2 (human)) | inhibition (DYRK3 (human)) | inhibition (EPHA2 (human)) | inhibition (FGFR1 (human)) | inhibition (FLT1 (human)) | inhibition (IGF1R (human)) | inhibition (MAP3K1 (human)) | inhibition (MAP3K9 (human)) | inhibition (MAPK11 (human)) | inhibition (MAPKAPK2 (human)) | inhibition (MAPKAPK3 (human)) | inhibition (MELK (human)) | inhibition (MINK1 (human)) | inhibition (MST4 (human)) | SMILES | inhibition (MAPK15 (human)) | other results |
| --- | --- | --- | --- | --- | --- | --- | --- | --- | --- | --- | --- | --- | --- | --- | --- | --- | --- | --- | --- | --- | --- |
| 15% | 17% | 0% | 0% | 0% | 27% | 1% | 0% | 0% | 0% | 0% | 6% | 0% | 2% | 17% | 0% | 0% | 0% | 0% | O=C(Nc1cnc2[nH]cnn2c1=O)c1ccccc1 | 4% | inhibition (MYLK (human)): 0%; inhibition (NEK2 (human)): 0%; inhibition (NEK6 (human)): 0%; inhibition (PAK6 (human)): 0%; inhibition (PAK7 (human)): 0%; inhibition (PHKG1 (human)): 28%; inhibition (PIM1 (human)): 0%; inhibition (PIM2 (human)): 0%; inhibition (PKN2 (human)): 0%; inhibition [2]: 0%; inhibition (PRKCA (human)): 0%; inhibition (PRKCG (human)): 2%; inhibition (RPS6KA5 KD1 KD2 (human)): 52%; inhibition [3]: 0%; inhibition (SRPK1 (human)): 0%; inhibition [4]: 0%; inhibition (STK3 (human)): 0%; inhibition (SYK (human)): 0%; inhibition (YES1 (human)): 0% |
| 68% | 67% | 0% | 25% | 55% | 20% | 12% | 33% | 88% | 72% | 85% | 21% | 79% | 13% | 20% | 54% | 43% | 75% | 77% | Nc1cnc2c(-c3c(F)cccc3F)cccn2c1=O | 36% | inhibition (MYLK (human)): 25%; inhibition (NEK2 (human)): 0%; inhibition (NEK6 (human)): 0%; inhibition (PAK6 (human)): 10%; inhibition (PAK7 (human)): 35%; inhibition (PHKG1 (human)): 38%; inhibition (PIM1 (human)): 31%; inhibition (PIM2 (human)): 21%; inhibition (PKN2 (human)): 73%; inhibition [2]: 40%; inhibition (PRKCA (human)): 36%; inhibition (PRKCG (human)): 25%; inhibition (RPS6KA5 KD1 KD2 (human)): 33%; inhibition [3]: 0%; inhibition (SRPK1 (human)): 58%; inhibition [4]: 62%; inhibition (STK3 (human)): 64%; inhibition (SYK (human)): 30%; inhibition (YES1 (human)): 57% |
| 16% | 49% | 0% | 19% | 31% | 37% | 30% | 9% | 41% | 39% | 28% | 53% | 0% | 23% | 22% | 15% | 1% | 28% | 13% | O=c1cc(-c2ccccc2F)nc2[nH]ccn12 | 18% | inhibition (MYLK (human)): 13%; inhibition (NEK2 (human)): 29%; inhibition (NEK6 (human)): 7%; inhibition (PAK6 (human)): 3%; inhibition (PAK7 (human)): 0%; inhibition (PHKG1 (human)): 8%; inhibition (PIM1 (human)): 67%; inhibition (PIM2 (human)): 17%; inhibition (PKN2 (human)): 2%; inhibition [2]: 0%; inhibition (PRKCA (human)): 2%; inhibition (PRKCG (human)): 7%; inhibition (RPS6KA5 KD1 KD2 (human)): 21%; inhibition [3]: 18%; inhibition (SRPK1 (human)): 0%; inhibition [4]: 6%; inhibition (STK3 (human)): 27%; inhibition (SYK (human)): 20%; inhibition (YES1 (human)): 33% |
